Reference: US20110150974A1, “Agent For Oral Mucosal Administration” (DAIICHI PHARMACEUTICAL CO., LTD., priority 2004, published 2011)
Structures can show the parent of a compound that is named as a salt.

What was measured:
[1] = Drug distribution to each tissue in rats (oral mucosal vs oral administration); format: in vivo, Rats (male Wistar)
Method: Rats (9-week old male Wistar rats, body weight: 172 to 205 g) were fixed at the dorsal position under urethane (1.25 g/kg i.p.) anesthesia. The test preparation was administered, and plasma and tissues (minor salivary glands, stomach, small intestine, liver, kidney) were collected 0.5, 1, 2, 4 and 8 hours later for observation of the condition of the application site of the preparation and measurement of the concentration in each tissue. The surface of the minor salivary glands was rinsed with physiological saline, and contents were removed from the stomach and the small intestine, which were rinsed in physiological saline. Each collected tissue was stored at −40° C. before the measurement. The medicament concentration in each tissue was measured by LC/MS/MS.

[2] = tested on: xerostomia caused by Sjogren's syndrome; conditions: oral preparations, cited from earlier work
Human Oral Mucosa = assay: Influences of pH and additives on drug absorption from human oral mucosa (gargle test); format: in vivo; conditions: healthy volunteers, FIG. 2
Method: Healthy volunteers were made to clean their teeth and then gargle with 10 mL of each test solution (Examples 1 to 4) for 2 minutes, the gargles were collected, and then the oral cavity was washed twice with 10 mL of distilled water for 10 seconds. All the mouth wash was added to the test solution after gargling. The amounts of cevimeline hydrochloride in the test solutions before and after the gargling were measured by HPLC, and the difference between the samples was calculated as the amount of absorption to the oral mucosa.

CC1OC2(CS1)CN1CCC2CC1 (racemic) [cevimeline hydrochloride hydrate, (±)-cis-2-methylspiro(1,3-oxathiolane-5,3′-quinuclidine) monohydrochloride monohydrate]
mucosal irritancy at the application site ([1]; oral mucosal administration (patch of Example 9)): no mucosal irritancy was observed | drug concentration in the stomach ([1]; oral mucosal administration (patch of Example 9) compared with oral administration, 0.5-8 hours, FIG. 5): lower | drug concentration in the small intestine ([1]; oral mucosal administration (patch of Example 9) compared with oral administration, 0.5-8 hours, FIG. 6): lower | drug concentration in the kidney ([1]; oral mucosal administration (patch of Example 9) compared with oral administration, 0.5-8 hours, FIG. 8): lower | drug concentration in the liver ([1]; oral mucosal administration (patch of Example 9) compared with oral administration, 0.5-8 hours, FIG. 9): lower | plasma concentrations ([1]; oral mucosal administration (patch of Example 9) compared with oral administration, changed less in the initial period, FIG. 10): remained constantly low | concentrations in the minor salivary glands ([1]; oral mucosal administration (patch of Example 9), FIG. 11): markedly high | medicament concentrations in the stomach, small intestine, kidney and liver in the initial period after administration ([1]; oral mucosal administration (patch of Example 9), up to 2 hours): apparently low | saliva secretion promoting effect ([2]; JP 61-280497 and 06-024981): confirmed | adverse reactions in the digestive system ([2]; may cause): nausea, abdominal pain, and vomiting | amount of absorption to the oral mucosa (Human Oral Mucosa; pH 8.0, triethanolamine/hydrochloric acid buffer compared with McIlvaine buffer, gargle 10 mL for 2 minutes): larger | amount absorbed from oral mucosa (Human Oral Mucosa; pH 8.0 compared with pH 6.0, gargle): more | oral mucosal absorbability (Human Oral Mucosa; triethanolamine concentration of 1.5% compared with 0.3%, pH 8.0, gargle): better
